Measurements from ChEMBL document CHEMBL1201862, “PubChem BioAssay data set” (2004).
Values belong to the compound of their own block, whether it stands above or below them. Activity calls are given as the source filed them.

Key:
[1] = molecular target: T1, RNA-binding protein pos-1 (Caenorhabditis elegans, UniProt G5EF15); experiment: disruptors of C. elegans POS-1 RNA interaction – biochemical, fluorescence polarization, dose response (AID 1964);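 further: purified POS-1 fused to maltose binding protein made in E. coli; potency of compounds blocking POS-1 binding to fluorescent RNA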
T1 sequence (G5EF15 whole entry): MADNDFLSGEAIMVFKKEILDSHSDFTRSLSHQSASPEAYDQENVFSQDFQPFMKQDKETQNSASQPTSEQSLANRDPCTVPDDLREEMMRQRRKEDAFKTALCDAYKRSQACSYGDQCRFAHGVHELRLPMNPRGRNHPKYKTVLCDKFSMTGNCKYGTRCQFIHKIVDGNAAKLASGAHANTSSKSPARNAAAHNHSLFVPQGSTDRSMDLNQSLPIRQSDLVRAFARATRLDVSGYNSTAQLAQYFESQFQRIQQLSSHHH

[2] = molecular target: T2, Zinc finger protein mex-5 (Caenorhabditis elegans, UniProt Q9XUB2); experiment: potency of MEX-5 RNA-binding blockers – biochemical, C. elegans, fluorescence polarization, dose response (AID 1960)
T2 sequence (Q9XUB2 whole entry): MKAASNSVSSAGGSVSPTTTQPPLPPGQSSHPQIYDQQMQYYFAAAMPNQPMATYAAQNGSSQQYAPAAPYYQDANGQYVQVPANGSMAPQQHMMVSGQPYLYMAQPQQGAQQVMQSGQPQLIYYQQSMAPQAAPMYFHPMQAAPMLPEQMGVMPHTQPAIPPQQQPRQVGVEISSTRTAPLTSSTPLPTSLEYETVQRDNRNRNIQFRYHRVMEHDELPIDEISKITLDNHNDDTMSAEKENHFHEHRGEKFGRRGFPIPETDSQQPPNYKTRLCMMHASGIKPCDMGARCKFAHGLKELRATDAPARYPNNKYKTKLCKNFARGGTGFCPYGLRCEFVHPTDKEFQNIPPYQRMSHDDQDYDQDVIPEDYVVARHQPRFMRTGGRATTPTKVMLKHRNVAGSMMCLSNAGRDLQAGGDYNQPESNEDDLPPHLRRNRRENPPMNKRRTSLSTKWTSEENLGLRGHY

[3] = molecular target: T3, Heat shock factor protein 1 (Mus musculus, UniProt P38532); experiment: decrease of HSF1-responsive luciferase luminescence – cell-based, NIH3T3, dose retest, confirmation (AID 2382); assay type: functional;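 further: NIH3T3 fibroblasts with HSF1-driven luciferase reporter stressed by proteasome inhibitor MG132; luminescence from HSF1-driven luciferase expression after 8 hours of MG132 stress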
T3 sequence (P38532 whole entry): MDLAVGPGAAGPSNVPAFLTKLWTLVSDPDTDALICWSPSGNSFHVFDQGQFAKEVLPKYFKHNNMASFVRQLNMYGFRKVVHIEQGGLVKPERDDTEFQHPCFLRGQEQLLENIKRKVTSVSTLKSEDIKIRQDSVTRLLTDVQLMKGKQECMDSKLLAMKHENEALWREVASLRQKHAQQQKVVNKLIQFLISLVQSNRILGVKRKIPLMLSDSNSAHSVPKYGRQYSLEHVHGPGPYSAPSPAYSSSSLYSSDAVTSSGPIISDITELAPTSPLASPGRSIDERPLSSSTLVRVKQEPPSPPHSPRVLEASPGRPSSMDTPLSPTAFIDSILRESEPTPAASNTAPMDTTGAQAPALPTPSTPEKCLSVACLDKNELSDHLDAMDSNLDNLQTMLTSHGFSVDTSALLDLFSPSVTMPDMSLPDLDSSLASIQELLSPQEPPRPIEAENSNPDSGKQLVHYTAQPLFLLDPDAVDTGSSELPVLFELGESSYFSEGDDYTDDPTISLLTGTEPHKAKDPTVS

[4] = Trypanosoma cruzi growth suppression in host cells – NIH3T3 host cells, beta-gal luminescence, confirmation (AID 2044); assay type: functional, cell-based;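 further: intracellular parasites grown in NIH/3T3 mouse fibroblasts as host cells; luminescent beta-galactosidase reporter signal from transgenic T. cruzi replicating inside host cells; inhibitors lower the luminescence signal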
[5] = NIH3T3 cell viability loss – ATP luminescence, mouse fibroblasts, counter-screen, dose response (AID 2010); assay type: functional, cell-based;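 further: cells exposed to compound for about 90 hours before reading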
Leucine aminopeptidase = molecular target: T4, Leucine aminopeptidase (Plasmodium falciparum 3D7, UniProt Q8IL11); experiment: P. falciparum M17LAP inhibitors, primary screen, biochemical, fluorogenic H-Leu-NHMec substrate, 1536-well (AID 1619); assay type: functional
T4 sequence (Q8IL11 whole entry): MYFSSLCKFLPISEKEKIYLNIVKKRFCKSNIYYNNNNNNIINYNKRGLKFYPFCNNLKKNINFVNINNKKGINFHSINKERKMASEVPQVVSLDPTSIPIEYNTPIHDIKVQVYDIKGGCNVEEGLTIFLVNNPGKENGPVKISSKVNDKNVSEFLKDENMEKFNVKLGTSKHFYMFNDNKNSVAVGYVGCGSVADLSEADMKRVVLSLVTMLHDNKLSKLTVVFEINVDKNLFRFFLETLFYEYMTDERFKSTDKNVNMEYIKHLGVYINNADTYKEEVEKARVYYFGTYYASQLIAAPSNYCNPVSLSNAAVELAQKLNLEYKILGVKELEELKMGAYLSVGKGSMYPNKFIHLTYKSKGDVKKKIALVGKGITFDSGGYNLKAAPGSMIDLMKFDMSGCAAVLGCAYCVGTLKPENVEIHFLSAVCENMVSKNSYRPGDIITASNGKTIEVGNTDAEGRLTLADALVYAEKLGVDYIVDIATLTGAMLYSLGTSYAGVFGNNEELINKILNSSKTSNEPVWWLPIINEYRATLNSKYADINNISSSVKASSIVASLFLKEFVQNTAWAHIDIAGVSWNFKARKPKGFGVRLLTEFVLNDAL

[6] = reduction of Shn3 3'UTR-driven luciferase in osteoblasts – cell-based, Clone20 osteoblasts, firefly luciferase, cherry-picked, dose response (AID 624132); assay type: functional;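 further: firefly luciferase luminescence from reporter carrying the Shn3 3'UTR in osteoblasts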
[7] = loss of viability in HepG2 cells – cell-based, CellTiter-Glo, cherry-picked, cytotoxicity control for Shn3 inhibitor project, dose response (AID 624134); assay type: functional
[8] = non-specific 3'UTR reporter inhibition in Clone20-Shn3RL – cell-based, Renilla luciferase, cherry-picked, counter-screen for Shn3 inhibitor project, dose response (AID 624133); assay type: functional
Large T antigen = Large T antigen (Simian virus 40, UniProt P03070); assay type: functional, Betapolyomavirus macacae;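 further: Confirmatory-stage PubChem screen for compounds that inhibit SV40 T antigen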
Sequence of Large T antigen (P03070 whole entry): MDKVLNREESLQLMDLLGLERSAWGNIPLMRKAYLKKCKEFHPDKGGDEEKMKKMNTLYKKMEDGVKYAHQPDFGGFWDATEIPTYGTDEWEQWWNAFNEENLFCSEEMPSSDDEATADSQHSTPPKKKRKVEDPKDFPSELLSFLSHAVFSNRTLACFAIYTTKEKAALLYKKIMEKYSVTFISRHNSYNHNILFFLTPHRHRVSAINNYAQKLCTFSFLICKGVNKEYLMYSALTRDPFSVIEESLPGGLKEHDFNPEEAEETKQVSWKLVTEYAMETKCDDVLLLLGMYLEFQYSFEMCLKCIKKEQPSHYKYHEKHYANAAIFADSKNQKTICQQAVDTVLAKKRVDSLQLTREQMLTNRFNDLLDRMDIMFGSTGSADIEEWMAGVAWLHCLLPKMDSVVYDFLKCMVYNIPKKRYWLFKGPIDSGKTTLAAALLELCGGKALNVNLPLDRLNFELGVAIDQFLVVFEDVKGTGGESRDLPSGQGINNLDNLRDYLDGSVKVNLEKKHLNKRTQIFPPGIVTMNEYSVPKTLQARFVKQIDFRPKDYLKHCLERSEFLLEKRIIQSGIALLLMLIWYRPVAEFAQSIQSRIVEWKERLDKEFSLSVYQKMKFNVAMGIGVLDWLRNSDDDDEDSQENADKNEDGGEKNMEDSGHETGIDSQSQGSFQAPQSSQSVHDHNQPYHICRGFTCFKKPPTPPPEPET

[9] = molecular target: T5, Rac GTPase-activating protein 1 (Homo sapiens, UniProt Q9H0H5); experiment: blockers of MgcRacGAP-driven Rac1 GTP hydrolysis – biochemical, ADP Hunter fluorescence, primary and confirmatory, confirmation (AID 624330); assay type: functional
T5 sequence (Q9H0H5 whole entry): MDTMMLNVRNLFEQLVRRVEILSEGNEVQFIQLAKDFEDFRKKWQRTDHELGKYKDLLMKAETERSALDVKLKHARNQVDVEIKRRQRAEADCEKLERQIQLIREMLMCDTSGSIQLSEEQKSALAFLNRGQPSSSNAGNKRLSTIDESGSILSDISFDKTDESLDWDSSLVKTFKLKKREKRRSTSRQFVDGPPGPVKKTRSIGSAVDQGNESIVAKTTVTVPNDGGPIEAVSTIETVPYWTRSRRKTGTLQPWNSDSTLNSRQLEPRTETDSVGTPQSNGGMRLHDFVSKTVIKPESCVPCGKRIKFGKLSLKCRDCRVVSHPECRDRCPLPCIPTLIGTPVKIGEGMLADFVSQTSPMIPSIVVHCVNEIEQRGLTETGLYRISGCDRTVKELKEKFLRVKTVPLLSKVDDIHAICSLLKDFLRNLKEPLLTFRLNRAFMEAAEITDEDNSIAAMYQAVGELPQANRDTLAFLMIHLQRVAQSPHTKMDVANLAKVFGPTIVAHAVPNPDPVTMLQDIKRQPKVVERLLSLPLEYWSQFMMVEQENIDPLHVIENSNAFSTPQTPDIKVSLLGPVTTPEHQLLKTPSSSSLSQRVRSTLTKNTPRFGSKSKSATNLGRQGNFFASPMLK

H9c2 = experiment: cells; assay type: functional, cell-based; conditions: Rattus norvegicus, H9c2, Myocardium;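 further: confirmatory concentration-response retest of ultra-high-throughput screening hits for modulation of myocardial damage; cell death induced by hydrogen peroxide oxidative stress; compound pretreatment for 60 min then peroxide exposure for 2 h; potency is for protecting the cells against peroxide damage rather than for killing them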
[10] = molecular target: T6, Ubiquitin-conjugating enzyme E2 N (Homo sapiens, UniProt P61088); assay type: functional;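 further: Dose-response confirmation in a TR-FRET assay detecting UBC13-driven polyubiquitin chain formation, inhibition measured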
T6 sequence (P61088 whole entry): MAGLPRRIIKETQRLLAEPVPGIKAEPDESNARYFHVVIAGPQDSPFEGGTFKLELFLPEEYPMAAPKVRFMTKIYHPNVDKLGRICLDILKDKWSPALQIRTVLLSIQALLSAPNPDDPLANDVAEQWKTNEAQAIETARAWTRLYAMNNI

Cytochrome P450 3A4 = Cytochrome P450 3A4 (Homo sapiens, UniProt P08684);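 further: CYP3A4 tested as one member of a cytochrome P450 panel screen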
Sequence of Cytochrome P450 3A4 (P08684 whole entry): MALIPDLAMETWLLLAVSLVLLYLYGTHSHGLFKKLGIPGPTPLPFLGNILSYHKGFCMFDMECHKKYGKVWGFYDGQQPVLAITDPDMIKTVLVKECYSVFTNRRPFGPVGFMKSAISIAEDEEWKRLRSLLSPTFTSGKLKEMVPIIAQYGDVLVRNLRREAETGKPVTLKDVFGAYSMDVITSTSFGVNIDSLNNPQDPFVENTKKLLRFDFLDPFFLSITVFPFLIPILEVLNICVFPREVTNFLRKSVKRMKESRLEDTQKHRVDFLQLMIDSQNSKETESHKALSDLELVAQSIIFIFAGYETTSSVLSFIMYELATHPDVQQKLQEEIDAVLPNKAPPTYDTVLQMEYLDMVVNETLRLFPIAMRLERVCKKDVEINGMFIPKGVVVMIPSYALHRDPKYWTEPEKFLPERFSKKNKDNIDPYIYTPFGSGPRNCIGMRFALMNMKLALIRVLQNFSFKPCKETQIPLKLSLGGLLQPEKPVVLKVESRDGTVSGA

[11] = Luminescence Cell-Based Dose Retest to Confirm Inhibitors of Cancer Stem Cells. [Related pubchem assays (depositor defined):AID2717, AID2721]; assay type: functional; conditions: Homo sapiens

SMILES: O=C(NNc1ccccc1)C(=O)NNS(=O)(=O)c1ccc([N+](=O)[O-])cc1
EC50 [1]: 21.1 µM (active)
EC50 [2]: 5.08 µM (active)
EC50 [4]: 0.87 µM (active)
EC50 [5]: 9.05 µM (active)

SMILES: COc1cccc2c(=O)n(CC(=O)N3CCC(C)CC3)ccc12
IC50 (Leucine aminopeptidase): 42.5 µM (active)

SMILES: CCCCc1ccc(NC(=O)N[C@H](C(=O)O)C(C)CC)cc1 (some centres undefined)
IC50 (Leucine aminopeptidase): 6.31 µM (active)

SMILES: Cc1nc2ccccn2c1C(=O)NC1CCCc2ccccc21 (centres undefined)
AC50 [6]: 2.47 µM (active)
AC50 [7]: 46.8 µM (active)
AC50 [8]: 4.51 µM (active)

SMILES: CC1(C)Cc2c(C#N)c(SCc3nc4ccccc4[nH]3)nc(N3CCOCC3)c2CO1
IC50 (H9c2): 45.5 µM (inactive)

SMILES: CN(c1ccccc1)S(=O)(=O)c1cccc(NC(=O)c2ccc3ncsc3c2)c1
AC50 [6]: 17.2 µM (active)
AC50 [7]: 53.8 µM (active)
AC50 [8]: 13.3 µM (active)

SMILES: COC(=O)c1ccc(NCC(=O)N2CCCCCC2)cc1
IC50 (Leucine aminopeptidase): 40.3 µM (active)

SMILES: N#Cc1c(-c2cccs2)cc(-c2cccnc2)nc1N
IC50 (H9c2): > 79 µM (inactive)

SMILES: CC(C)NC(=O)C1CCN(C(=O)c2cc3sccc3n2Cc2ccc(F)cc2)CC1
AC50 [6]: 5.05 µM (active)
AC50 [7]: 36.6 µM (active)
AC50 [8]: 8.2 µM (active)

SMILES: CCOc1ccc(C2OC34CCCCC3C(C#N)(C#N)C2(C#N)C(=N)O4)cc1OC (centres undefined)
EC50 [1]: 11.8 µM (active)
EC50 [2]: 10.5 µM (active)

SMILES: COc1ccc(/C(C)=C2\SC(=S)N(CCC(=O)O)C2=O)cc1
IC50 (Leucine aminopeptidase): 30.1 µM (active)

SMILES: CN(C)c1ccc(N/C=C/C(=O)C(F)(F)F)cc1
IC50 (Large T antigen): 9.98 µM (active)

SMILES: CCOC(=O)c1ccc(NC(=O)c2[nH]cnc2C(=O)NCCNC(=O)c2nc[nH]c2C(=O)Nc2ccc(C(=O)OCC)cc2)cc1
AC50 [11]: 0.65 µM (active)
AC50 [6]: 5.51 µM (active)
AC50 [7]: 9.03 µM (active)

SMILES: C=C1CC2(CC(c3ccccc3)OC(c3ccccc3)C2)OC1=O (centres undefined)
AC50 [6]: 2.49 µM (active)
AC50 [7]: 38.4 µM (active)
AC50 [8]: 7.45 µM (active)

SMILES: O=C(COC(=O)Cc1nnc(O)c2ccccc12)Nc1ccc(Cl)cc1F
IC50 (H9c2): > 79 µM (inactive)

SMILES: COc1cc(-c2cc(NC=O)c3ncc(-c4ccc(C(C)=O)cc4)n3c2)ccc1O
IC50 (H9c2): > 79 µM (inactive)

SMILES: COc1ccc(-c2cc(NC=O)c3ncc(-c4cccc(C(C)=O)c4)n3c2)cc1
IC50 (H9c2): > 79 µM (inactive)

SMILES: COc1cccc(-c2cnc3c(NC(C)=O)cc(-c4cccc(NS(C)(=O)=O)c4)cn23)c1
IC50 (H9c2): > 79 µM (inactive)

SMILES: COc1ccc(-c2ccc3[nH]c4c(c3c2)CCN2C[C@H]3[C@H](C)ON(C)[C@H]3C[C@@H]42)cc1
IC50 (H9c2): > 79 µM (inactive)

SMILES: C=C1CC(C(=O)N/N=C/c2ccc(O)cc2)C1
IC50 (Large T antigen): 9.17 µM (active)
IC50 [9]: 42.6 µM (active)

SMILES: CCNc1nn2ccccc2c1/C=C(\C#N)C(=O)OCC
EC50 [1]: > 300 µM (not active)
EC50 [2]: 68.8 µM (active)

The next lines start with the values.

EC50 [1]: > 300 µM (inconclusive)
EC50 [2]: 18.1 µM (active)
EC50 [3]: > 195 µM (not active)
SMILES: Brc1ccc(C2=CC(c3ccco3)n3ncnc3N2)cc1 (centres undefined)

EC50 [1]: > 300 µM (not active)
EC50 [2]: > 300 µM (not active)
SMILES: O=S(=O)(c1ccccc1)N1CCC(O)(CSc2ccc(Cl)cc2)CC1

IC50 (Large T antigen): 33.1 µM (active)
IC50 [9]: 60.7 µM (active)
SMILES: Cc1c(N=C2NC(=O)/C(=C/c3ccc(O)cc3)S2)c(=O)n(-c2ccccc2)n1C

IC50 [10]: > 20 µM (inactive)
SMILES: COc1ccc(Nc2cc(Nc3cc(OC)c(OC)c(OC)c3)ncn2)cc1

EC50 [1]: > 300 µM (not active)
EC50 [2]: > 300 µM (not active)
AC50 (Cytochrome P450 3A4): 3.16 µM (inconclusive)
SMILES: CN(C)c1ccnc(Oc2ccc(Cl)cc2)c1C#N

EC50 [1]: > 300 µM (not active)
EC50 [2]: > 300 µM (not active)
SMILES: O=Cc1c(-c2ccccc2)nc2ccccn12

IC50 (Large T antigen): > 100 µM (active)
SMILES: COc1ccc(N2CCN(C(=O)CN(c3ccccc3)S(C)(=O)=O)CC2)cc1

EC50 [1]: > 300 µM (not active)
EC50 [2]: > 300 µM (not active)
SMILES: CCOC(=O)c1c(-c2ccccc2)csc1NC(=O)/C(C#N)=C/c1ccc(OC)c(OC)c1

IC50 (Leucine aminopeptidase): 21.7 µM (active)
SMILES: O=C(CN1C(=O)C2C3C=CC(C4CC34)C2C1=O)Nc1cnc2ccccc2c1 (centres undefined)

IC50 [10]: > 20 µM (inactive)
SMILES: CCN(CCCNC(=O)c1cc2c(-c3cccc(OC)c3)nn(C)c2s1)Cc1ccccc1

IC50 [10]: > 20 µM (inactive)
SMILES: CCC(=O)NC(c1cc(Cl)c2ccccc2c1O)C1CC1 (centres undefined)

EC50 [1]: 54.6 µM (active)
EC50 [2]: > 150 µM (not active)
SMILES: COc1ccc(C(=O)/C=C/Nc2ccc([N+](=O)[O-])cc2C)cc1OC

IC50 [10]: > 20 µM (inactive)
SMILES: Cc1ccc2c(c1)c(/N=N/C(=N)S)c(O)n2Cc1ccccc1
